Reference: publication PMC11802874, “The hypolipidemic effect of MI-883, the combined CAR agonist/ PXR antagonist, in diet-induced hypercholesterolemia model” (Nature Communications, 2025)
Values joined by “and” are separate entries in the source; they are usually repeats but may differ in a detail not shown here. Identical values can stand only once.

How the values were obtained:
[1] = tested on: humanized PXR-CAR-CYP3A4/3A7 mice, liver; assay: RT-qPCR and Western blotting of liver samples (HFD study); type: in vivo, mouse
Description: RT-qPCR expression studies were performed on liver samples from eleven humanized PXR-CAR-CYP3A4/3A7 mice that were fed a high-fat diet and treated with 5 mg/kg MI-883 three times per week for four weeks. Specific TaqMan probes were used, following the protocol described in Supplementary Table S3.
Western blotting experiments have been performed in BioRad instruments with BioRad precasted gels and reagents. Antibodies are listed in Supplementary Table S4. Densitometry has been done using ChemiDoc™ MP Imaging System and software (BioRad, Hercules, USA). Data are presented as relative protein expression to control samples. For protein expression quantification, areas in histograms have been calculated and related to a reference protein.

[2] = tested on: humanized PXR-CAR-CYP3A4/3A7 mice fed HCD; assay: High-cholesterol diet (HCD) study: weights, plasma biochemistry; type: in vivo, mouse; details: for ALP / ALT / AST / Albumin / Bilirubin / Fe / UA / Urea / LDH / BW (Fig. 4g) / Chol (Fig. 4h) / Glu (Fig. 4h) / HDL (Fig. 4h) / LDL (Fig. 4h) / LW (Fig. 4g) / LW/BW (Fig. 4g) / TG (Fig. 4h): individual animals
Description: For experiments with a high-cholesterol diet (HCD), mice (18–26 weeks) were pretreated ad libitum for 2 weeks with diet containing 15% fat and 12.5 g/kg of cholesterol (E15103, ssniff, Soest, Germany) (Fig. 4f). After this period, animals were randomly assigned to two groups (control vehicle-treated and MI-883-treated animals, with 9 males and 7 females per group). Animals were dosed orally with MI-883 (5 mg/kg every other day—Monday, Wednesday, Friday, and the following Monday and Wednesday, for a total of 5 doses) or vehicle alone (5% DMSO/5% PEG300/90% corn oil) via oral gavage three times per week. The animals remained on the HCD during the treatment period. Mice were sacrificed after 5 treatments.
Mice were weighted and tissues (livers, blood, duodenum, jejunum, ileum, white fat) were removed, weighted and snap frozen in liquid nitrogen and stored at –80 °C until analysis. Blood was collected from the retro-orbital sinus of mice under isoflurane anesthesia into heparin-coated tubes (Kabe Laboratortechnik GmbH, Nümbrecht-Elsenroth, Germany) after 3 h fasting and analyzed on AU480 biochemistry analyzer (Beckman Coulter, Brea, USA). Sample preparation for bile acid and cholesterol analyses from tissues or feces is described below. One of the liver lobes was fixed in formalin, embedded in paraffin blocks, sectioned, and subjected to H&E staining. Blood was analyzed as described in Supplementary, Chapter 10.
Blood was collected from the retro-orbital sinus of mice under isoflurane anesthesia into heparin-coated tubes (Kabe Laboratortechnik GmbH, Nümbrecht-Elsenroth, Germany) after 3 hours of fasting. Blood was left for 10 minutes at room temperature, and then kept on ice until centrifugation (5,000 g at 4°C for 10 minutes). The collected plasma was stored at -80 °C until measurement. Lipoprotein levels and other plasmatic parameters were measured on an AU480 biochemistry analyzer (Beckman Coulter, Brea, USA).

[3] = target: PPARα (Homo sapiens, UniProt Q07869); assay: Luciferase reporter gene assay PPARα, HepG2
Description: The luciferase reporter gene assays for FXR, LXRα, LXRβ, THα, GRα, PPARα, PPARδ/β, PPARγ, AhR, VD, ERα, ERβ and mouse Car are described in our recent paper[19]
Gal4-LBD constructs of tested nuclear receptors have been used together with pGL4.31[luc2P/GAL4UAS/Hygro] luciferase reporter construct and pRL-TK Renilla expression vector (both from Promega, Hercules, USA) in HepG2 cells transfected with Lipofectamine 2000 or 3000 reagents. For GRα and FXR receptors, full-length expression vectors have been used with pGRE-luc or pFXRE-luc luciferase constructs. For the aryl hydrocarbon receptor (AhR), p1A1-luc construct was used with only pRL-TK vector for transfection normalization. A dual reporter assay (Promega, Hercules, USA) was used to analyze both firefly and Renilla luciferase activities.
Gal4-LBD constructs of tested nuclear receptors have been used together with pGL5-luc luciferase reporter construct and pRL-TK Renilla expression vector in HepG2 cells transfected with Lipofectamine 2000 or 3000 reagents. For GRα and FXR receptors, full-length expression vectors have been used with pGRE-luc or pFXRE-luc luciferase constructs. For the aryl hydrocarbon receptor (AhR), p1A1-luc construct was used with only pRL-TK vector for transfection normalization. […] Bars represent means±S.D. (n=3).

[4] = target: T1, PXR/NCOR2 (Homo sapiens, UniProt O75469); assay: Mammalian two-hybrid PXR/corepressor NCOR2 release, HepG2; type: cell-based; set-up: key: firefly/Metridia luciferase activity ratio (normalized)
T1 construct: PXR-LBD (residues 108–434); expressed in transfected cells; host or cells: HepG2
Description: The GAL4-dependent pGL4-G5, harboring a pentamer of GAL4 binding sites in front of the E1b promoter was described before.
Transient batch transfection of HepG2 cells was done as described above. […] All transfections included 0.01 µg pMetLuc2control per well for normalization of firefly luciferase reporter activities. After overnight incubation with the transfection mixtures, cells were treated with chemicals in a volume of 100 µl of cell culture medium. […] Firefly luciferase activity was measured in 10 µl of cell lysates, and Metridia luciferase activity was analyzed in 10 µl of medium supernatant, both as described before. Results were normalized by dividing firefly luciferase activity by Metridia luciferase activity measured from the same well. Measurements of samples were repeated several times (n ≥ 3).

[5] = FigS13, individual animals, relative to control
[6] = HFD study, Western blotting, form not given
[7] = hPXR/hCAR/hCYP3A4/7 mice, relative to control, individual animals
[8] = first vehicle/MI-883 column pair
[9] = second vehicle/MI-883 column pair

T1 sequence (O75469 108-434): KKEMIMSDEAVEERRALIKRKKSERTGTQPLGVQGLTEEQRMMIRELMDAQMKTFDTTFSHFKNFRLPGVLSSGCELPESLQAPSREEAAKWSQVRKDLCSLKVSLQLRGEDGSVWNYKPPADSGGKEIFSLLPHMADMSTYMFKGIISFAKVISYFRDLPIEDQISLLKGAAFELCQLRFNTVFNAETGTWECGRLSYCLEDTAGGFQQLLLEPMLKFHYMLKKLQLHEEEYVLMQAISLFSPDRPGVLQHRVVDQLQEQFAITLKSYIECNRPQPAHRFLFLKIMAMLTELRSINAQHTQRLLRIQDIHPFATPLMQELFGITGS
T1 sequence (P19793 whole entry partner, the tested form may be a part): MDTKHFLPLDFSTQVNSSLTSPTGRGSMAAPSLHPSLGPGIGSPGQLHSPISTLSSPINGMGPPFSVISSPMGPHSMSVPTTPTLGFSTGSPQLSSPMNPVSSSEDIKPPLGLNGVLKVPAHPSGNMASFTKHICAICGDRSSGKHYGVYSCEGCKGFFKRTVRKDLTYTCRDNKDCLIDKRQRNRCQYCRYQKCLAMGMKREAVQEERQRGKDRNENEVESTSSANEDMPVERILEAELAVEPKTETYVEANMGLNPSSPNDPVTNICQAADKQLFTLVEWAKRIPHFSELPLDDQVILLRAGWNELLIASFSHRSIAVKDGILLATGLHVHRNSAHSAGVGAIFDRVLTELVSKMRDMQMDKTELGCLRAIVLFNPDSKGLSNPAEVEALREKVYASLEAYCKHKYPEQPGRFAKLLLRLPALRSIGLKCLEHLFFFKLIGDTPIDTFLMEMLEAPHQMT
Sequence of PPARα (Q07869 239-466 limits assumed): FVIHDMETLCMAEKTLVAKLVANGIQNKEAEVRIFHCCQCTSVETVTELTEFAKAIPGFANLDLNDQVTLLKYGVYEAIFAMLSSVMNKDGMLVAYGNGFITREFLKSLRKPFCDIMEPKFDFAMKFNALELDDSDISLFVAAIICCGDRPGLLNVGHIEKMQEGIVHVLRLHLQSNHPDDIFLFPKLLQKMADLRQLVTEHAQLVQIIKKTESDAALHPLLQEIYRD

NC(=O)c1cc(Cn2cc(-c3c(-c4ccc(Cl)cc4)nc4cc(F)ccn34)nn2)ccc1Cl [MI-883, 2-chloro-5-((4-(2-(4-chlorophenyl)-7-fluoroimidazo[1,2-a]pyridin-3-yl)-1H-1,2,3-triazol-1-yl)methyl)benzamide]
Acaca mRNA (RT-qPCR) [1, 5]: 0.62 and 1.24 and 0.73 and 1.27 and 0.85 and 0.6 and 0.7 and 0.51 and 0.8 and 0.28 and 0.34
Cd36 mRNA (RT-qPCR) [1, 5]: 0.88 and 1.19 and 0.76 and 1.31 and 0.8 and 0.72 and 1.01 and 0.19 and 1.11
Cpt1a mRNA (RT-qPCR) [1, 5]: 1.05 and 0.92 and 2.34 and 0.85 and 1.37 and 0.77 and 1.27 and 0.96 and 1.08 and 0.81 and 0.88
FaSN mRNA (RT-qPCR) [1, 5]: 0.51 and 0.56 and 0.8 and 0.98 and 0.62 and 0.37 and 0.54 and 0.38 and 0.73 and 0.14 and 0.71
Plin2 mRNA (RT-qPCR) [1, 5]: 0.41 and 0.63 and 0.49 and 0.9 and 0.62 and 0.85 and 0.58 and 0.57 and 1 and 0.16 and 0.74
Pnpla3 mRNA (RT-qPCR) [1, 5]: 1.72 and 1.4 and 0.48 and 1.37 and 0.96 and 0.84 and 0.35 and 0.25 and 1.49 and 0.03 and 1.94
Ppara mRNA (RT-qPCR) [1, 5]: 0.97 and 0.71 and 1.1 and 0.18 and 1.04
Scd1 mRNA (RT-qPCR) [1, 5]: 0.36 and 0.67 and 0.33 and 0.76 and 0.51 and 0.6 and 0.47 and 0.34 and 0.52 and 0.56
liver Scd1 mRNA, RT-qPCR (n = 11) ([1]; HFD study, P = 0.0036): significantly downregulated
liver Fasn and Plin2 mRNA, RT-qPCR ([1]; HFD study, P = 0.007 and P = 0.018): significantly downregulated
liver Cyp7a1 and Cyp8b1 proteins ([1]; HFD study, Western blotting): significant upregulation
liver Insig1 prot, individual samples ([1]; HFD study, Western blotting): 3.8 and 3.3 and 3.1 and 2.9
liver Srebp1 120 kDa protein or mature nuclear fragments (mSrebp1) ([1]; HFD study, Western blotting): did not see any significant decrease
liver Mrp4 prot, individual samples ([1]; HFD study, Western blotting, relative to control): 1.89 and 1.6214 and 2.1487 and 1.571
liver Srebp1/2 protein, lower block, first control/MI-883 pair [1, 6]: 1.8 and 1.6 and 1.7 and 1.1
liver Srebp1/2 protein, lower block, second control/MI-883 pair [1, 6]: 0.6 and 0.7 and 0.5
liver Srebp1/2 protein, upper block, second control/MI-883 pair [1, 6]: 1.7 and 1.5 and 1.1 and 1.2
liver mature nuclear mSrepb2 protein ([1]; HFD study, effect is not significant): may decrease
liver Cyp7a1 mRNA, RT-qPCR, individual animals ([1]; HFD study, relative to control): 0.7586 and 0.4023 and 0.5977 and 0.2759 and 0.5402 and 0.954 and 0.4943 and 0.9885 and 0.5172
liver Insig1 mRNA, RT-qPCR, individual animals ([1]; HFD study, relative to control): 1.68 and 2.22 and 0.72 and 0.43 and 1.13 and 1.06 and 1.18 and 2.34 and 1.52 and 1.27 and 0.68
liver Mrp4 mRNA, RT-qPCR, individual animals ([1]; HFD study, relative to control): 4.091 and 6.648 and 4.182 and 4.443 and 4.045 and 2.545 and 4.341 and 10.0455 and 5.239 and 3.409
liver Srebf1 mRNA, RT-qPCR, individual animals ([1]; HFD study, relative to control): 0.7619 and 0.9619 and 0.5619 and 0.6 and 1.105 and 0.7714 and 0.7143 and 0.8857 and 0.819 and 0.4571
liver Sult2a1 mRNA, RT-qPCR, individual animals ([1]; HFD study, relative to control): 4.077 and 3.288 and 1.404 and 2.538 and 0.8846 and 1.615
liver Ugt1a1 mRNA, RT-qPCR, individual animals ([1]; HFD study, relative to control): 1.852 and 2.477 and 1.455 and 1.284 and 1 and 1.58 and 1.148 and 2.057 and 2 and 2.17 and 0.8977
liver Ugt2b34 mRNA, RT-qPCR, individual animals ([1]; HFD study, relative to control): 1.412 and 2.106 and 2.063 and 1.118 and 1.379 and 0.7926
liver murine Gadd45b mRNA and Meg3 lncRNA ([1]; PXR-CAR-CYP3A4/3A7 mice (Fig. 7a)): statistically significant upregulation
Bcl2 expression (Fig. 7a) [1, 7]: 0.87 and 0.95 and 0.93 and 1.25 and 1.35 and 0.29
Cdkn1a expression (Fig. 7a) [1, 7]: 1.39 and 0.41 and 0.43 and 0.27 and 1.57 and 0.35
Foxm1 expression (Fig. 7a) [1, 7]: 2.03 and 1.26 and 1.41 and 1.28 and 1.37 and 0.42
Gadd45b expression (Fig. 7a) [1, 7]: 2.07 and 7.83 and 4.06 and 7.82 and 5.69 and 2.44
Mcl1 expression (Fig. 7a) [1, 7]: 0.58 and 1.09 and 0.6 and 1.16 and 0.84 and 0.26
Meg3 expression (Fig. 7a) [1, 7]: 2.24 and 7.88 and 3.05 and 3.57 and 2.39
Mki67 expression (Fig. 7a) [1, 7]: 1.7 and 1.18 and 1.43 and 1.11 and 1.31 and 0.71
Pcna expression (Fig. 7a) [1, 7]: 0.78 and 1.24 and 0.66 and 0.89 and 0.57 and 0.36
ALP ([2]; HCD female): 64 and 60 and 66
ALT ([2]; HCD female): 52 and 44 and 50 and 65 and 53 and 31 and 37
AST ([2]; HCD female): 97 and 85 and 59 and 60 and 100 and 48
Albumin ([2]; HCD female): 29.13 and 29.02 and 28.37 and 27.41 and 25.72 and 27.39 and 28.99
Bilirubin ([2]; HCD female): 1.92 and 2.23 and 1.15 and 0.79 and 1.09 and 1.2
Fe ([2]; HCD female): 25.95 and 24.87 and 19.99 and 29.01 and 26.38 and 27.47 and 25.24
UA ([2]; HCD female): 74.13 and 68.35 and 69.17 and 60.17 and 117.85 and 58.32 and 32.43
Urea ([2]; HCD female): 5.81 and 6.85 and 7.72 and 6.07 and 8.19 and 6.12 and 7.88
ALP ([2]; HCD male): 60 and 53 and 64 and 50 and 42 and 46 and 69 and 45 and 43
ALT ([2]; HCD male): 335 and 154 and 210 and 103 and 48 and 36 and 40 and 194 and 61
AST ([2]; HCD male): 202 and 190 and 151 and 98 and 62 and 43 and 71 and 125 and 88
Albumin ([2]; HCD male): 25.95 and 26.89 and 26.71 and 27.24 and 27.46 and 26.93 and 28.1 and 27.95 and 27.85
Bilirubin ([2]; HCD male): 1.82 and 2.96 and 1.74 and 3.02 and 2.04 and 3.59 and 1.89 and 1.94
Fe ([2]; HCD male): 21.53 and 13.76 and 24.97 and 21.49 and 28.7 and 25.79 and 20.83 and 28.43 and 27.87
UA ([2]; HCD male): 56.8 and 93.42 and 54.01 and 55.84 and 44.35 and 31.12 and 35.14 and 37.35 and 25.57
Urea ([2]; HCD male): 7.34 and 6.71 and 7.14 and 5.73 and 5.13 and 5.97 and 6.54 and 7
liver weight (LW) and LW/BW ([2]; HCD, p.o. 5 mg/kg, five doses every other day): not after five doses
LDH ([2]; HCD, (sex not given)): 1.47 and 1.15 and 1.63 and 0.85 and 1.36 and 1.38 and 0.99 and 1.41 and 1.28
LDH ([2]; HCD, vehicle/MI-883 (sex not given)): 1.12 and 1.15 and 1.19 and 1.1 and 1.09
BW (Fig. 4g) [2, 8]: 26.3 and 24.9 and 24.8 and 24.3 and 24 and 23.2
Chol (Fig. 4h) [2, 8]: 3.83 and 3.39 and 3.78 and 3.72 and 3.46 and 3.54 and 3.66
Glu (Fig. 4h) [2, 8]: 13.29 and 13.05 and 14.81 and 13.6 and 14.89 and 13.61 and 13.46
HDL (Fig. 4h) [2, 8]: 2.476 and 2.431 and 2.259 and 2.337 and 2.161 and 2.202 and 2.297
LDL (Fig. 4h) [2, 8]: 1.12 and 1.15 and 1.19 and 1.1 and 1.09
LW (Fig. 4g) [2, 8]: 1.78 and 1.62 and 1.65 and 1.52 and 1.64 and 1.48
LW/BW (Fig. 4g) [2, 8]: 6.77 and 6.51 and 6.65 and 6.255 and 6.833 and 6.379
TG (Fig. 4h) [2, 8]: 1.189 and 1.059 and 1.137 and 1.521 and 2.113 and 1.22 and 1.433
triglyceride levels in females ([2]; second study (HCD), at the level of statistical significance): some increase
BW (Fig. 4g) [2, 9]: 30 and 29.4 and 30.6 and 30.9 and 33.4 and 29.7 and 26.5 and 28.4 and 26.8
Chol (Fig. 4h) [2, 9]: 5.16 and 3.99 and 5.8 and 3.44 and 4.89 and 4.88 and 4.18 and 4.72
Glu (Fig. 4h) [2, 9]: 13.25 and 13.05 and 16.4 and 12.86 and 18.52 and 15.35 and 11.72 and 18.14 and 17.74
HDL (Fig. 4h) [2, 9]: 3.01 and 2.484 and 3.335 and 2.267 and 3.073 and 3.039 and 2.781 and 3.388 and 2.988
LDL (Fig. 4h) [2, 9]: 1.47 and 1.15 and 1.63 and 0.85 and 1.36 and 1.38 and 0.99 and 1.41 and 1.28
LW (Fig. 4g) [2, 9]: 1.63 and 1.97 and 2.03 and 1.53 and 2.51 and 2.11 and 1.85 and 1.32 and 1.94
LW/BW (Fig. 4g) [2, 9]: 5.43 and 6.7 and 6.63 and 4.95 and 7.51 and 7.1 and 6.98 and 4.65 and 7.24
TG (Fig. 4h) [2, 9]: 0.993 and 0.808 and 0.849 and 0.608 and 0.516 and 0.697 and 0.709 and 0.93 and 0.706
NRs assays: PPARa (relative to ctrl, replicates) [3]: 0.75 and 0.92 and 1.14
PXR/NCOR2 (SMRT) two-hybrid activity, replicates ([4]; MI-883 30 μM): 0.575 and 0.629 and 0.672 and 0.562 and 0.437
PXR/NCOR2 (SMRT) two-hybrid activity, replicates ([4]; single agent: RIF (10 µM), MI-883 10 μM): 0.59 and 0.547 and 0.723 and 0.544 and 0.703
